The source made the active and inactive calls.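 The calls were made as follows: active = maximal inhibition of USP17 at or above 30% in the confirmation dose-response, a value not among the printed readouts; inactive = the rest.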
Target: Ubiquitin carboxyl-terminal hydrolase 17-like protein 5 (Homo sapiens) (UniProt A8MUK1)
Assay: ubiquitin-specific protease 17 inhibitors, concentration series, biochemical, verification of primary actives (AID 1645864)
Settings: purified USP17, ubiquitin-rhodamine cleavage fluorescence, 3 h

Chain of Ubiquitin carboxyl-terminal hydrolase 17-like protein 5 (Homo sapiens) (A8MUK1 whole entry, looked up): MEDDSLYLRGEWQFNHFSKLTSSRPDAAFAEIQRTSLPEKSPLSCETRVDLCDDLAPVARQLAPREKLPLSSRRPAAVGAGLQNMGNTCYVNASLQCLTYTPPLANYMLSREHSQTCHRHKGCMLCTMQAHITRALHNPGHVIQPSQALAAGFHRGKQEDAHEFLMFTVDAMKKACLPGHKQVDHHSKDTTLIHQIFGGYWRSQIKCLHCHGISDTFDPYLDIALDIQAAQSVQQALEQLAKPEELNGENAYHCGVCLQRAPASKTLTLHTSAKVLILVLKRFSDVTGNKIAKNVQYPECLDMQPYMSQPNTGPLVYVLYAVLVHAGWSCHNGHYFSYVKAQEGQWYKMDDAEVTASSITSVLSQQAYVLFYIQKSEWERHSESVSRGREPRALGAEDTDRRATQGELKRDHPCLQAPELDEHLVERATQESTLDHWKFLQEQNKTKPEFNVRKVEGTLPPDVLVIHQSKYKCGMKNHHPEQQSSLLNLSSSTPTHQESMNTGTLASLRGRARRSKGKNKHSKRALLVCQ

**Q.** Which IC50 does the source give for COc1cc(Cl)ccc1Nc1ncc(C(=O)Nc2cc(OC)c(OC)c(OC)c2)c2ccccc12 here?
**A.** The IC50 was less than 0.05 µM.

**Q.** For Cc1cc(C(=O)N2CCOCC2)c(C)n1-c1ccc(O)cc1, which IC50 is on record?
**A.** The IC50 was 23.9 µM.

**Q.** With COc1cccc2cc(C(=O)Nc3nc(-c4ccncc4)cs3)oc12 as the compound, how does the IC50 read?
**A.** Its IC50 is 0.17 µM.

**Q.** For COc1cccc(CNC(=O)c2ccc3c(c2)NC(=O)C2CCCN32)c1OC (stereo not drawn), which IC50 is on record?
**A.** The IC50 was > 50 µM (inactive).

**Q.** Which IC50 does the source give for Cc1cccc(C(=O)OCC(=O)Nc2ccc3[nH]c(=O)[nH]c3c2)c1C here?
**A.** Its IC50 is 4.32 µM.

**Q.** Which IC50 does the source give for N#C/C(=C\c1ccc(-c2cc(Cl)ccc2Cl)o1)c1nnc2n1CCCCC2 here?
**A.** Its IC50 is > 50 µM (inactive).

**Q.** COc1ccc(-c2nc(CNC(=O)COc3ccc(C)cc3)cs2)cc1 was tested. Which IC50 did it give?
**A.** The IC50 was 36.9 µM.

**Q.** COc1ncccc1CN1CCn2c(Cn3cncn3)cnc2C1C (stereo not drawn) was tested. Which IC50 did it give?
**A.** The IC50 was > 50 µM (inactive).

**Q.** How did the IC50 turn out when NC(=O)CCC(=O)N[C@H]1C[C@H]2CN(Cc3ccccc3)c3ccccc3CN2C1 was run?
**A.** Its IC50 is > 50 µM (inactive).

**Q.** For O=C(Cn1c(=O)n(Cc2ccccc2)c(=O)c2ncccc21)NCc1ccccc1Cl, which IC50 is on record?
**A.** Its IC50 is 37.9 µM.

**Q.** Which IC50 does the source give for O=C(NCc1cccnc1)c1cnn2c(C(F)(F)F)cc(-c3ccc(F)cc3)nc12 here?
**A.** The IC50 was 27.7 µM.

**Q.** For O=C1C[C@@H](O)[C@H](O)[C@@]23O[C@@]12C1(Oc2cccc4cccc(c24)O1)[C@@H]1O[C@@H]1[C@@H]3O, which IC50 is on record?
**A.** The IC50 was 22 µM.

**Q.** For COc1ccccc1NS(=O)(=O)c1cccc(NC(=O)CCc2nc3ccccc3s2)c1, which IC50 is on record?
**A.** Its IC50 is 4.09 µM.

**Q.** Which IC50 does the source give for CCOc1ccc(-c2nc(C#N)c(N3CCN(C(=O)c4ccccc4C)CC3)o2)cc1 here?
**A.** Its IC50 is 3.3 µM.

**Q.** With COc1ccc(-c2cc(-c3nnc(CSc4nc5ccccc5n4C)o3)c3ccccc3n2)cc1OC as the compound, how does the IC50 read?
**A.** Its IC50 is > 50 µM (inactive).

**Q.** How did the IC50 turn out when COc1ccc(-n2c(=O)c(CCC(=O)O)nc3ccccc32)cc1 was run?
**A.** Its IC50 is > 50 µM (inactive).

**Q.** With CO/C=C/C(=O)c1cc2cnc3c(=N)cc(NC(C)=O)c([nH]1)c23 as the compound, how does the IC50 read?
**A.** The IC50 was > 50 µM (inactive).

**Q.** For CC1CC(=O)c2c(cc3c(-c4c(O)cc(O)c5c(O)c6c(cc45)OC(C)CC6=O)c(O)cc(O)c3c2O)O1 (stereo not drawn), which IC50 is on record?
**A.** Its IC50 is 0.486 µM.

**Q.** For Nc1c(-c2ccc(Cl)cc2)cnc2cc(-c3ccc(Cl)c(Cl)c3)nn12, which IC50 is on record?
**A.** Its IC50 is 3.37 µM.

**Q.** For O=C(CCCn1c(=O)c2ccccc2n(CC(=O)NCc2ccccc2Cl)c1=O)NCc1ccc2c(c1)OCO2, which IC50 is on record?
**A.** The IC50 was 2.2 µM.

**Q.** How did the IC50 turn out when CC1CCCN(CCCNC(=O)c2ccc(N3CCc4ccccc43)s2)C1 (stereo not drawn) was run?
**A.** The IC50 was > 50 µM (inactive).

**Q.** How did the IC50 turn out when CCc1ccc2[nH]c3c(c(=O)c2c1)CN(CC(=O)NCc1ccc2c(c1)OCO2)CC3 was run?
**A.** The IC50 was 28.1 µM.

**Q.** CC(C)c1cc(Nc2cccc(F)c2)n2nc(-c3cccnc3)nc2n1 was tested. Which IC50 did it give?
**A.** Its IC50 is 7.65 µM.

**Q.** O=C(CSc1nnc(CNC(=O)c2ccccc2F)o1)Nc1ccc(OC(F)(F)F)cc1 was tested. Which IC50 did it give?
**A.** The IC50 was 33 µM.

**Q.** COc1cc(Cl)c(C)cc1NC(=O)Cn1c(=O)n(CC(=O)NCc2ccco2)c(=O)c2ccccc21 was tested. Which IC50 did it give?
**A.** The IC50 was 2.37 µM.

**Q.** How did the IC50 turn out when Cc1c(C)n(-c2ccccc2)c2ncn(CC(=O)NCCCc3ccccc3)c(=O)c12 was run?
**A.** The IC50 was 34.4 µM.

**Q.** For O=C(Cn1cccc1-c1nc(-c2ccccc2)cs1)N1CCOCC1, which IC50 is on record?
**A.** The IC50 was 16 µM.

**Q.** Which IC50 does the source give for Cc1ccccc1NC(=O)c1ccn(COc2ccc(Cl)cc2)n1 here?
**A.** Its IC50 is > 50 µM (inactive).

**Q.** How did the IC50 turn out when CCn1c(SCC(=O)N2c3ccccc3CC2C)nnc1-c1ccc2c(c1)OCCO2 (stereo not drawn) was run?
**A.** The IC50 was 34.4 µM.

**Q.** Which IC50 does the source give for C[C@@H](C(=O)NCc1ccc(F)cc1)N1C(=O)N2CCc3c([nH]c4ccccc34)[C@@]2(C)C1=O here?
**A.** Its IC50 is 5.77 µM.

**Q.** Which IC50 does the source give for c1ccc2c(Cc3nc(-c4ccncc4)no3)cccc2c1 here?
**A.** Its IC50 is > 50 µM (inactive).

**Q.** For COc1cccc2c1OCC(C(=O)NCc1ccc(F)cc1)=C2, which IC50 is on record?
**A.** Its IC50 is > 50 µM (inactive).

**Q.** With CSc1cccc(NC(=O)CCc2ccc3nc(NC(C)=O)sc3c2)c1 as the compound, how does the IC50 read?
**A.** Its IC50 is > 50 µM (inactive).

**Q.** For CCOC(=O)c1ccc(NC(=O)Cn2c(=O)n(CC(=O)NCc3ccco3)c(=O)c3ccccc32)cc1, which IC50 is on record?
**A.** Its IC50 is 2.89 µM.

**Q.** Cc1cc(NC(=O)COc2ccc3oc4ccccc4c3c2)no1 was tested. Which IC50 did it give?
**A.** Its IC50 is 31.4 µM.

**Q.** COc1cc(-c2cc(C(=O)Nc3cc(C)[nH]n3)c3ccccc3n2)cc(OC)c1OC was tested. Which IC50 did it give?
**A.** Its IC50 is 42.9 µM.

**Q.** How did the IC50 turn out when CN(C)c1cccc(C(=O)Nc2cc(-c3cccnc3)no2)c1 was run?
**A.** The IC50 was 26.9 µM.

**Q.** For O=C(c1ccco1)N1CCN=C1SCc1ccccc1F, which IC50 is on record?
**A.** The IC50 was > 50 µM (inactive).

**Q.** How did the IC50 turn out when Cc1ccc(Cn2nnc(-c3noc(-c4ccc[nH]4)n3)c2C)cc1 was run?
**A.** Its IC50 is > 50 µM (inactive).

**Q.** For O=C(NCc1ccc(-c2nc3cnccc3o2)cc1)c1ccccc1F, which IC50 is on record?
**A.** The IC50 was 18.8 µM.

**Q.** For Cc1nc(-c2cccc(NC(=O)C3CCN(c4ccccc4)C3=O)c2)no1 (stereo not drawn), which IC50 is on record?
**A.** The IC50 was 37.2 µM.

**Q.** How did the IC50 turn out when CC1CCc2c(sc3ncnc(NC4CCN(CC(N)=O)CC4)c23)C1 (stereo not drawn) was run?
**A.** The IC50 was > 50 µM (inactive).

**Q.** Cc1ccc(Cn2nnc(C(=O)NCc3ccco3)c2-n2cccc2)cc1 was tested. Which IC50 did it give?
**A.** The IC50 was 42.4 µM.

**Q.** How did the IC50 turn out when Cc1nc2cccnc2n1C1CCN(C(=O)c2cc3cc(Cl)ccc3[nH]2)C1 (stereo not drawn) was run?
**A.** Its IC50 is > 50 µM (inactive).

**Q.** How did the IC50 turn out when NC(=O)c1nc(-c2cccnc2)nc2c1[nH]c(=O)n2-c1ccc2c(c1)OCO2 was run?
**A.** Its IC50 is 4.01 µM.

**Q.** How did the IC50 turn out when O=C(Cn1cnc2ccccc21)Nc1ccc2c(c1)CCC2 was run?
**A.** The IC50 was 27.9 µM.

**Q.** With Fc1cnc(N2CC[C@H]3CO[C@H](CNc4ncccn4)[C@H]3C2)nc1 as the compound, how does the IC50 read?
**A.** The IC50 was > 50 µM (inactive).

**Q.** How did the IC50 turn out when COc1ccccc1OCCNC(=O)c1cc(C2CC2)nc2c1cnn2C(C)C was run?
**A.** Its IC50 is > 50 µM (inactive).

Source: PubChem BioAssay AID1645864 (Buhrlage Lab, Dana-Farber Cancer Institute and Novartis …, 2021)
